Data on 34 compounds can be found in US20140227208A1, “COSMETIC COMPOSITIONS CONTAINING SUBSTITUTED AZOLE AND METHODS FOR ALLEVIATING MECHANICALLY-INDUCED SKIN INFLAMMATION” (The Procter & Gamble Company, priority 2013, published 2014).

One data set concerns the target CYP3A4 (Homo sapiens, UniProt P08684). The experiment in a line: In vitro CYP/CYP3A4 inhibition assay (P450-GLO Assay kit, Promega). From the text: The metabolism of retinoic acid and vitamin D in the skin is incompletely understood, but there is evidence for the involvement of CYP26A1, CYP3A4 and CYP2C8 in catalyzing the 4-hydroxylation of all-trans RA to 4-hydroxy-RA. It is believed, without being limited by theory, that CYP3A4 may be particularly important for ATRA metabolism in the skin. This is because CYP3A4 is expressed in skin, involved in RA metabolism, a CYP with one of the broadest substrate specificities of all of the known CYPs and available as a human recombinant protein in a commercial kit. Thus, a commercially available CYP3A4 assay was used as a surrogate to predict RAMBA potential in the skin.
The commercially available P450-GLO™ Assay kit (Promega Corporation, Madison Wis.) was used to screen various compounds for potential CYP activity, specifically CYP3A4A inhibition activity. CYP3A4A is thought to be among the primary CYP isoforms responsible for retinoic acid metabolism in the skin.
The commercially available P450-GLO™ Assay kit (Promega Corporation, Madison Wis.) was used to screen various compounds for potential CYP activity, specifically CYP3A4A inhibition activity. CYP3A4A is thought to be one of the primary CYP isoforms responsible for retinoic acid metabolism in the skin.

In data set [1] the test system is ATRA 4-hydroxylase activity (CYP) of pig liver microsomes. The experiment in a line: In vitro ATRA 4-hydroxylase (CYP) inhibition assay using pig liver microsomes. Conditions: for IC50: 90 min. From the text:
Cytochrome P450 is a large and diverse group of enzymes that catalyze the oxidation of organic substances. […] Applicant evaluated the potential RAMBA activity of several azoles using pig liver microsomes, a rich source of CYP activity, comprising many different CYP 450 isoforms. […] As understanding in this area has progressed, a more specific CYP inhibition assay can be used to provide better predictivity of activity in human skin. Nevertheless, this assay may still be used as a general predictor of overall CYP activity.
Microsomal preparation: One lobe of fresh pig liver was obtained at the time of slaughter from a food-processing company and immediately placed in ice cold 15 mM KH2PO4/250 mM sucrose (pH 7.4) and kept on ice during transportation. A 10 g sample of liver was minced and homogenized in 30 mls of homogenization buffer (15 mM KH2PO4/250 mM sucrose) using a Tekmar homoginizer by pulsing 3 times 20 second pulses. […] The remaining pig liver was cut into 10-g pieces and wrapped in aluminum foil and stored at −80° C. The homogenates from the 8 samples were pooled and centrifuged at 13,000×g for 20 minutes at 4° C. to remove crude debris and the supernatant was further centrifuged at 100,000×g for 70 minutes at 4° C. The microsomal pellets were resuspended into 50 mls of 150 mM KH2PO4/1 mM DTT (pH 7.4) and 1 mL aliquots were stored at −80° C. In vitro 4-hydroxylase activity assay: All procedures were carried out under minimal light in order to prevent degradation of the retinoid samples. The ATRA 4-hydroxylase assay can be described briefly as follows: 100-150 μg of pig liver microsomal protein in 150 mM KH2PO4 was incubated at 37° C. in the presence of radiolabeled ATRA and 5 mM NADPH for 90 min. The final ATRA concentration was 1 μM, as a combination of [20-Methyl-^3H]ATRA and unlabeled ATRA. Initially radiolabeled ATRA was used to assist in validating the method. Once retention times of retinoid metabolites were identified unlabeled ATRA was used for screening. Compounds tested as possible competitive substrates were added to the assay 10 min prior to the addition of ATRA. Ethanol, containing 0.1% butylated hydroxytoluene (BHT) as an antioxidant, was used to stop the reactions. For recovery of ATRA the pH of reactions were adjusted to 3.0 before extraction with 0.1N HCl. Retinoids were extracted from the protein aqueous phase with 4 mls hexane, 1 ml 100 μg/ml BHT in water (pH 3). An additional 4 mls of hexane (pH 3) was used for a second extraction. The organic extractions were pooled, evaporated to dryness using a speed vac, and resuspended in 62.5 μl acetonitrile containing 1 mg/ml BHT. Samples were analyzed by HPLC. […] Mobile phases used for gradient elution of retinoids were those of Duell et al., J. Clin. Invest. […] Mobile phase A was acetonitrile:0.02 M ammonium acetate:acetic acid (1:1:0.01) and mobile phase B was acetonitrile:0.2M ammonium acetate;acetic acid (19:1:0.008). […] Because of the sensitivity limitations of the β-RAM spectrometer, it was not used to quantitate peak areas but rather to confirm ATRA and ATRA 4-hydroxylase activity. Calculated peaks areas (using Millenium software—Waters Corp.) of ATRA and ATRA metabolites were used to quantify relative activity levels.
For orientation: Liver microsomes are a subcellular fraction often used to study metabolism.

For data set [2], the system named is mechanically-induced skin inflammation (shaving). Put plainly: Method of treatment: shaving cream and leave-on skin cream applied to facial and neck regions. Particulars: 0.55% by weight in shaving cream before and leave-on cream after shaving, topical, 8 weeks. The data set is classed as in vivo, human. From the text: A test subject topically applies a shaving cream composition comprising 0.55% 1-phenylimidazole, by weight in a vehicle, to the facial and neck regions prior to shaving. A leave-on skin cream comprising 0.55% 1-phenylimidazole, by weight in a vehicle, is applied to the same facial and neck regions after shaving.

Setting [3] is: IC50 (uM), CYP3A4 inhibition, P450-GLO Assay kit, human recombinant CYP3A4.
Setting [4] is: read-out: IC50 (μM), in vitro 4-hydroxylase inhibition assay, pig liver microsomes, 1 μM ATRA, 5 mM NADPH, 37° C.
Where [5] appears, read: P450-GLO Assay kit, human recombinant CYP3A4.
Where [6] appears, read: read-out: IC50 (uM), CYP3A4 inhibition, P450-GLO Assay kit, human recombinant CYP3A4.

Like-named read-outs stand apart in the source and are kept apart here.

As a reminder, the IC50 is the concentration that gives 50% inhibition.

CYP3A4, sequence (P08684 whole entry): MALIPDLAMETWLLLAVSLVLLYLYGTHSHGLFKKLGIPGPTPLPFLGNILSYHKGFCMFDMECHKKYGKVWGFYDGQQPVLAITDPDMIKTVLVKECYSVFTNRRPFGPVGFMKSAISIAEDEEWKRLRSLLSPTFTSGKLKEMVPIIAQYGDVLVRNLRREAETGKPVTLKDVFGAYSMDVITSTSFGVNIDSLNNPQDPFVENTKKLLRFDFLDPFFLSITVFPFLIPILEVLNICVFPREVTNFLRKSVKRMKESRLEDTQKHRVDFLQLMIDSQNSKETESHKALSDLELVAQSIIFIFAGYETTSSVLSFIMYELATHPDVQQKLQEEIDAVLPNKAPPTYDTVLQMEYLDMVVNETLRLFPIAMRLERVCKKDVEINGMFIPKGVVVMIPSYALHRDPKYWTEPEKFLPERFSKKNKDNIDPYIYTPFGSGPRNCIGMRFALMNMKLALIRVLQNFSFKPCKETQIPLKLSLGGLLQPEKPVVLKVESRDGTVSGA

Regarding `CC(=O)n1ccnc1` [1-Acetylimidazole], the IC50 on CYP3A4 (setting [3]) was more than 10 µM.

With `Cn1ccnc1` [1-Methylimidazole], the IC50 against CYP3A4 was more than 10 µM.

With `C=Cn1ccnc1` [1-Vinylimidazole], the IC50 at CYP3A4 (setting [3]) was more than 10 µM.

As to `Cc1nccn1Cc1ccccc1` [1-benzyl-2-methylimidazole], the half-maximal inhibitory concentration (IC50) in data set [1] (pig) was found to be 308 µM.

`c1ccc(Cn2ccnc2)cc1` [1-benzylimidazole]: the IC50 in data set [1] (setting [4]) came to 77.5 µM.

Take `c1ccc(-n2ccnc2)cc1` [1-phenylimidazole]: the “CYP inhibitory activity (in words), 4-hydroxylase assay” value (from here on “CYP inhibitory activity (in words)”) in data set [1] (pig liver microsomes) is listed as “IC50 values in the same range as climbazole”. The half-inhibitory concentration (IC50) in data set [1] (setting [4]) is 52.5 µM; at CYP3A4 (human, recombinant enzyme), 1 µM. Also, the “inhibitory activity in the CYP3A4 assay (in words)” value against CYP3A4 (P450-GLO Assay kit) is recorded as “showed inhibitory activity”. In addition, on CYP3A4 (setting [5]), the “Hit / no hit for inhibition of CYP3A4” value is listed as “Hit”. In addition, the “facial and neck skin inflammation noted by the subject” value in data set [2] is given as “significantly less inflamed”.

Take `O=C(n1ccnc1)n1ccnc1` [1′-1-Carbonylimidazole]: the 50% inhibitory concentration (IC50) at CYP3A4 (setting [3]) was more than 10 µM.

For `Clc1ccccc1-c1nc2ccccc2[nH]1` [2-(2-Chlorophenyl) benzimidazole], the IC50 on CYP3A4 (setting [3]) was more than 10 µM.

`CCCCc1nc(C=O)c(Cl)[nH]1` [2-Butyl-4-chloro-5-formylimidazole] displayed a concentration for half-maximal inhibition (IC50) against CYP3A4 of more than 10 µM.

With `CCc1nc(C)c[nH]1` [2-Ethyl-4-methylimidazole], the concentration for half-maximal inhibition (IC50) on CYP3A4 (setting [3]) was more than 10 µM.

Regarding `CCc1ncc[nH]1` [2-Ethylimidazole], on CYP3A4, the half-inhibitory concentration (IC50) was more than 10 µM.

With `Cc1ncc[nH]1` [2-Methylimidazole], the IC50 on CYP3A4 (setting [3]) was more than 10 µM.

As to `c1ccc(-c2ncc[nH]2)cc1` [2-phenylimidazole], the “CYP inhibitory activity (in words)” value in data set [1] (pig liver microsomes) is on record as “lacked any significant inhibitory activity”. In addition, the IC50 in data set [1] (setting [4]) was more than 500 µM. For the same compound, at CYP3A4, the IC50 is more than 10 µM and the “inhibitory activity in the CYP3A4 assay (in words)” value is recorded as “did not”.

As for `c1ccc(-c2nc[nH]c2-c2ccccc2)cc1` [4,5-diphenylimidazole], in data set [1] (pig), the half-maximal inhibitory concentration (IC50) worked out at 100 µM.

With `c1ccc(-c2c[nH]cn2)cc1` [4-phenylimidazole], the “CYP inhibitory activity (in words)” value in data set [1] (pig liver microsomes) is listed as “IC50 values in the same range as climbazole”.

As to `CC(=O)c1ccc(-n2ccnc2)cc1` [4′-(Imidazol-1yl) acetophenome], the concentration for half-maximal inhibition (IC50) on CYP3A4 (setting [3]) stood at 0.8 µM. On CYP3A4 (human, recombinant enzyme), the “Hit / no hit for inhibition of CYP3A4” value is “Hit”.

On to `Clc1ncnc2[nH]cnc12` [6-Chloropurine], for which the IC50 on CYP3A4 (setting [3]) is more than 10 µM.

For `Nc1nc[nH]n1` [Amitrol], the IC50 against CYP3A4 was more than 10 µM.

Take `c1ccc2[nH]cnc2c1` [Benzimidazole]: the IC50 at CYP3A4 (setting [3]) is more than 10 µM.

For the compound `CC1=N[C@H](C(=O)O)CCN1` [Ectoine], at CYP3A4 (setting [3]), the IC50 is more than 10 µM.

At CYP3A4, `c1coc(-c2nc3ccccc3[nH]2)c1` [Fuberidazole] showed a half-inhibitory concentration (IC50) of more than 10 µM. For the same compound, the “Hit / no hit for inhibition of CYP3A4” value on CYP3A4 (human, recombinant enzyme) is “no hit >10 uM (key: hit: strong inhibition (IC50 value<10 μM); no hit: weak/no inhibition (IC50 value>10 μM))”.

Regarding `N=C(N)c1ccc(OCCCCCCOc2ccc(C(=N)N)cc2)cc1` [Hexamidine diisethionate], the IC50 on CYP3A4 (setting [3]) was more than 10 µM.

Regarding `N[C@@H](Cc1c[nH]cn1)C(=O)O` [Histidine], the IC50 at CYP3A4 (setting [3]) was more than 10 µM.

In the case of `c1ccc(-c2n[nH]cc2-c2ccnc3ccccc23)nc1` [LY-364947], the IC50 at CYP3A4 was more than 10 µM.

Regarding `Cc1cccc(C)c1N(Cn1cccn1)C(=O)CCl` [Metazachlor], the IC50 on CYP3A4 was more than 10 µM. Moreover, at CYP3A4 (human, recombinant enzyme), the “Hit / no hit for inhibition of CYP3A4” value was “no hit >10UM (key: hit: strong inhibition (IC50 value<10 μM); no hit: weak/no inhibition (IC50 value>10 μM))”.

Take `Cc1ccc2cc3c(ccc4ccccc43)c3c2c1CC3` [Methylcholanthrene]: the “Hit / no hit for inhibition of CYP3A4” value on CYP3A4 (setting [5]) is “Near Hit”.

At CYP3A4, `CCc1cccc(C)c1N(C(=O)CCl)C(C)COC` (centres unmarked) [Metolachlor] displayed an IC50 of more than 10 µM. Further, the “Hit / no hit for inhibition of CYP3A4” value on CYP3A4 (setting [5]) is “no hit (weak/no inhibition (IC50 value>10 μM))”.

Compound `CC(C)(C(=O)c1cccnc1)c1cccnc1` [Metyrapone] came in with an IC50 at CYP3A4 of 3 µM. The “Hit / no hit for inhibition of CYP3A4” value on CYP3A4 (human, recombinant enzyme) is listed as “Hit”.

Consider `Clc1ccc(COC(Cn2ccnc2)c2ccc(Cl)cc2Cl)c(Cl)c1` (centres unmarked) [Miconazole], for which the “Hit / no hit for inhibition of CYP3A4” value on CYP3A4 (human, recombinant enzyme) was “Hit 5 uM”.

With `NCCCn1ccnc1` [N-(3-Aminopropyl) imidazole], the IC50 against CYP3A4 is more than 10 µM.

Turning to `CC(=O)/C=C/C1=C(C)CCCC1(C)C` [β-Ionone], the concentration for half-maximal inhibition (IC50) at CYP3A4 (setting [3]) was more than 10 µM.

With Benomyl, the “Hit / no hit for inhibition of CYP3A4” value on CYP3A4 (setting [5]) is recorded as “no hit (weak/no inhibition (IC50 value>10 μM))”. For the same compound, at CYP3A4 (setting [6]), the half-inhibitory concentration (IC50) was more than 10 µM.

Glutamylamidoethyl imidazole: the “Hit / no hit for inhibition of CYP3A4” value on CYP3A4 (setting [5]) is reported as “no hit (weak/no inhibition (IC50 value>10 μM))”. For the same compound, the IC50 at CYP3A4 (setting [6]) is more than 10 µM.

Take Piperine: the “Hit / no hit for inhibition of CYP3A4” value on CYP3A4 (setting [5]) is recorded as “Hit”. Besides, at CYP3A4 (setting [6]), the half-inhibitory concentration (IC50) is approximately 10 µM.
